# ± gives the expanded uncertainty stated by the source.
# Test: xn = mol fraction of the nth substance listed
# Conditions: Liquid, Bellows volumetry
compound,measurement,setting,value
C=C [ethene] + Cc1ccccc1,mass density,"475.1 K, 12100 kPa, x1 = 0.3067",565.4 ± 14 kg/m3
same,mass density,"475.1 K, 14000 kPa, x1 = 0.3067",572.7 ± 14 kg/m3
same,mass density,"475.1 K, 17400 kPa, x1 = 0.3067",586 ± 14 kg/m3
same,mass density,"475.1 K, 20700 kPa, x1 = 0.3067",598.4 ± 14 kg/m3
same,mass density,"475.1 K, 24300 kPa, x1 = 0.3067",609 ± 15 kg/m3
same,mass density,"475.1 K, 30800 kPa, x1 = 0.3067",625.7 ± 15 kg/m3
same,mass density,"475.1 K, 37500 kPa, x1 = 0.3067",640.8 ± 15 kg/m3
same,mass density,"475.1 K, 44500 kPa, x1 = 0.3067",654.3 ± 16 kg/m3
same,mass density,"475.1 K, 51800 kPa, x1 = 0.3067",666.5 ± 16 kg/m3
same,mass density,"475.1 K, 58100 kPa, x1 = 0.3067",676.2 ± 16 kg/m3
same,mass density,"475.1 K, 63100 kPa, x1 = 0.3067",682.6 ± 16 kg/m3
same,mass density,"475.1 K, 67400 kPa, x1 = 0.3067",687.7 ± 16 kg/m3
same,mass density,"519 K, 4500 kPa, x1 = 0.1194",541.1 ± 13 kg/m3
same,mass density,"519 K, 5100 kPa, x1 = 0.1194",547.1 ± 13 kg/m3
same,mass density,"519 K, 6120 kPa, x1 = 0.1194",555.5 ± 13 kg/m3
same,mass density,"519 K, 7100 kPa, x1 = 0.1194",562.7 ± 14 kg/m3
same,mass density,"519 K, 8870 kPa, x1 = 0.1194",573.5 ± 14 kg/m3
same,mass density,"519 K, 10630 kPa, x1 = 0.1194",583 ± 14 kg/m3
same,mass density,"519 K, 13940 kPa, x1 = 0.1194",597.1 ± 14 kg/m3
same,mass density,"519 K, 14140 kPa, x1 = 0.1194",598.2 ± 14 kg/m3
same,mass density,"519 K, 17480 kPa, x1 = 0.1194",610.1 ± 15 kg/m3
same,mass density,"519 K, 24180 kPa, x1 = 0.1194",630.3 ± 15 kg/m3
same,mass density,"519 K, 31210 kPa, x1 = 0.1194",647.7 ± 16 kg/m3
same,mass density,"519 K, 38050 kPa, x1 = 0.1194",662.1 ± 16 kg/m3
same,mass density,"519 K, 44340 kPa, x1 = 0.1194",674.3 ± 16 kg/m3
same,mass density,"519 K, 51320 kPa, x1 = 0.1194",686.5 ± 16 kg/m3
same,mass density,"519 K, 51390 kPa, x1 = 0.1194",686.5 ± 16 kg/m3
same,mass density,"519 K, 58160 kPa, x1 = 0.1194",697.1 ± 17 kg/m3
same,mass density,"519 K, 63090 kPa, x1 = 0.1194",704.6 ± 17 kg/m3
same,mass density,"519 K, 66990 kPa, x1 = 0.1194",709.7 ± 17 kg/m3
same,mass density,"519.3 K, 8400 kPa, x1 = 0.3067",448 ± 11 kg/m3
same,mass density,"519.3 K, 8600 kPa, x1 = 0.3067",455.1 ± 11 kg/m3
same,mass density,"519.3 K, 9400 kPa, x1 = 0.3067",472 ± 11 kg/m3
same,mass density,"519.3 K, 10500 kPa, x1 = 0.3067",482.9 ± 12 kg/m3
same,mass density,"519.3 K, 12000 kPa, x1 = 0.3067",499.7 ± 12 kg/m3
same,mass density,"519.3 K, 13800 kPa, x1 = 0.3067",513.9 ± 12 kg/m3
same,mass density,"519.3 K, 14100 kPa, x1 = 0.3067",515.9 ± 12 kg/m3
same,mass density,"519.3 K, 15900 kPa, x1 = 0.3067",525.1 ± 13 kg/m3
same,mass density,"519.3 K, 17200 kPa, x1 = 0.3067",535.5 ± 13 kg/m3
same,mass density,"519.3 K, 20900 kPa, x1 = 0.3067",553.6 ± 13 kg/m3
same,mass density,"519.3 K, 24100 kPa, x1 = 0.3067",565.7 ± 14 kg/m3
same,mass density,"519.3 K, 31300 kPa, x1 = 0.3067",589.3 ± 14 kg/m3
same,mass density,"519.3 K, 37800 kPa, x1 = 0.3067",605 ± 14 kg/m3
same,mass density,"519.3 K, 44900 kPa, x1 = 0.3067",621.2 ± 15 kg/m3
same,mass density,"519.3 K, 51600 kPa, x1 = 0.3067",636.4 ± 15 kg/m3
same,mass density,"519.3 K, 58300 kPa, x1 = 0.3067",647.5 ± 16 kg/m3
same,mass density,"519.3 K, 63100 kPa, x1 = 0.3067",656.6 ± 16 kg/m3
same,mass density,"519.3 K, 67100 kPa, x1 = 0.3067",662.7 ± 16 kg/m3

# Source: the NIST ThermoML archive (doi:10.1016/j.fluid.2017.06.022)
